In patent US10513694B2, “Thienopyrrole compounds and uses thereof” (PROMEGA CORPORATION, priority 2015, dated 2019):
Where “and” joins values, the source holds several entries; their conditions need not be identical. Equal values may be shown once. Where a name gives a salt, the structure may show the parent alone.

These compounds were tested against NANOLUC® enzyme (Oplophorus gracilirostris, UniProt Q9GV45, A31E/A60N/A81I/F95D/I117V/K70R/L54V/L99Q/M102K/N193R/P142E/Q151K/Q38R/Q45L/V71I/Y165I) (assay: Inhibitor IC50 determination (NANOLUC enzyme, furimazine)). Conditions: IC50 (uM), 0.4 ng/ml NANOLUC enzyme, final furimazine 10 uM (at Km).
Format: biochemical
Description: The following example provides the IC50 values for the compounds disclosed herein. See Table 5 NANOLUC® enzyme was diluted to 0.4 ng/ml in CO2 independent media+10% FBS to make the detection reagent. A 3× dilution series of each inhibitor was then made in the detection reagent. A “no inhibitor” control was also made for each sample. 50 ul of each inhibitor dilution was mixed with 50 ul of NanoGlo buffer containing 20 uM furimazine. (Final furimazine concentration is 10 uM which is at Km.), and luminescence measured. Each sample was normalized to the “no inhibitor” control. The […] values were then determined using GraphPad Prism (log [inhibitor] vs. normalized response).

NANOLUC® enzyme, sequence (Q9GV45 28-196 with tags or gaps with the stated changes limits assumed): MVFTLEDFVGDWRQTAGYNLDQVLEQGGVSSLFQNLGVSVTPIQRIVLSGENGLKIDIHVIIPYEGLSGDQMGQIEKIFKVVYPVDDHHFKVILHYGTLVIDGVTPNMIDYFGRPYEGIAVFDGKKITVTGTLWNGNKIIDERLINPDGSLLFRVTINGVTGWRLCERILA

Structure (SMILES)	IC50
CCN(C(=O)Cn1c(C(=O)N2CCCC2)cc2sccc21)c1cccc(C)c1 [JRW-0008, N-ethyl-2-(5-(pyrrolidine-1-carbonyl)-4H-thieno[3,2-b]pyrrol-4-yl)-N-(m-tolyl)acetamide]	1.1 µM
CCN(C(=O)Cn1c(C(=O)N2CCCCC2)cc2sccc21)c1cccc(C)c1 [JRW-0009, N-ethyl-2-(5-(piperidine-1-carbonyl)-4H-thieno[3,2-b]pyrrol-4-yl)-N-(m-tolyl)acetamide]	2.7 µM
CCN(C(=O)Cn1c(C(=O)N[C@H]2CC[C@H](C(=O)O)CC2)cc2sccc21)c1cccc(C)c1 [JRW-0034, trans-4-(4-(2-(ethyl(m-tolyl)amino)-2-oxoethyl)-4H-thieno[3,2-b]pyrrole-5-carboxamido)cyclohexane-1-carboxylic acid]	0.059 µM
CCN(C(=O)Cn1c(C(=O)N[C@H]2CC[C@@H](C(=O)OC)CC2)cc2sccc21)c1cccc(C)c1 [JRW-0041, methyl-cis-4-(4-(2-(ethyl(m-tolyl)amino)-2-oxoethyl)-4H-thieno[3,2-b]pyrrole-5-carboxamido)cyclohexane-1-carboxylate]	0.2 µM
CCN(C(=O)Cn1c(C(=O)N[C@H]2CC[C@H](C(=O)NCCO)CC2)cc2sccc21)c1cccc(C)c1 [JRW-0043, 4-(2-(ethyl(m-tolyl)amino)-2-oxoethyl)-N-(trans-4-((2-hydroxyethyl)carbamoyl)cyclohexyl)-4H-thieno[3,2-b]pyrrole-5-carboxamide]	0.84 µM
CCN(C(=O)Cn1c(C(=O)N[C@H]2CC[C@H](C(=O)NCCN(C)C)CC2)cc2sccc21)c1cccc(C)c1 [JRW-0044, N-(trans-4-((2-(dimethylamino)ethyl)carbamoyl)cyclohexyl)-4-(2-(ethyl(m-tolyl)amino)-2-oxoethyl)-4H-thieno[3,2-b]pyrrole-5-carboxamide]	16.8 µM
CCN(C(=O)Cn1c(C(=O)N[C@H]2CC[C@H](C(N)=O)CC2)cc2sccc21)c1cccc(C)c1 [JRW-0052, N-(trans-4-carbamoylcyclohexyl)-4-(2-(ethyl(m-tolyl)amino)-2-oxoethyl)-4H-thieno[3,2-b]pyrrole-5-carboxamide]	1.3 µM
Cc1cccc(NC(=O)Cn2c(C(=O)NC3CCCCC3)cc3sccc32)c1 [JRW-0081, N-cyclohexyl-4-(2-oxo-2-(m-tolylamino)ethyl)-4H-thieno[3,2-b]pyrrole-5-carboxamide]	19.4 µM
COCCOCCN(C(=O)Cn1c(C(=O)NC2CCCCC2)cc2sccc21)c1cccc(C)c1 [JRW-0109, N-cyclohexyl-4-(2-((2-(2-methoxyethoxy)ethyl)(m-tolyl)amino)-2-oxoethyl)-4H-thieno[3,2-b]pyrrole-5-carboxamide]	10.1 µM
COCCOCCN(C(=O)Cn1c(C(=O)N[C@H]2CC[C@H](C(=O)OC)CC2)cc2sccc21)c1cccc(C)c1 [JRW-0110, Methyl-trans-4-(4-(2-((2-(2-methoxyethoxy)ethyl)(m-tolyl)amino)-2-oxoethyl)-4H-thieno[3,2-b]pyrrole-5-carboxamido)cyclohexane-1-carboxylate]	3 µM
CCN(C(=O)Cn1c(C(=O)Nc2ccccc2)cc2sccc21)c1cccc(C)c1 [JRW-0143, 4-(2-(ethyl(m-tolyl)amino)-2-oxoethyl)-N-phenyl-4H-thieno[3,2-b]pyrrole-5-carboxamide]	2.8 µM and 2.6 µM
CCN(C(=O)Cn1c(C(=O)N[C@H]2CC[C@H](C(=O)NCCCCCC(=O)OC)CC2)cc2sccc21)c1cccc(C)c1 [JRW-0145, methyl 6-(trans-4-(4-(2-(ethyl(m-tolyl)amino)-2-oxoethyl)-4H-thieno[3,2-b]pyrrole-5-carboxamido)cyclohexane-1-carboxamido)hexanoate]	0.12 µM
CCCCCCN(C(=O)Cn1c(C(=O)NC2CCCCC2)cc2sccc21)c1cccc(C)c1 [JRW-0148, N-cyclohexyl-4-(2-(hexyl(m-tolyl)amino)-2-oxoethyl)-4H-thieno[3,2-b]pyrrole-5-carboxamide]	5.3 µM
CCCCCCN(C(=O)Cn1c(C(=O)N[C@H]2CC[C@H](C(=O)OC)CC2)cc2sccc21)c1cccc(C)c1 [JRW-0149, methyl-trans-4-(4-(2-(hexyl(m-tolyl)amino)-2-oxoethyl)-4H-thieno[3,2-b]pyrrole-5-carboxamido)cyclohexane-1-carboxylate]	2.5 µM
CCN(C(=O)Cn1c(C(=O)Nc2cccc(C(=O)OC)c2)cc2sccc21)c1cccc(C)c1 [JRW-0151, methyl 3-(4-(2-(ethyl(m-tolyl)amino)-2-oxoethyl)-4H-thieno[3,2-b]pyrrole-5-carboxamido)benzoate]	7 µM
CCOC(=O)Cc1ccc(NC(=O)c2cc3sccc3n2CC(=O)N(CC)c2cccc(C)c2)cc1 [JRW-0152, ethyl 2-(4-(4-(2-(ethyl(m-tolyl)amino)-2-oxoethyl)-4H-thieno[3,2-b]pyrrole-5-carboxamido)phenyl)acetate]	4.3 µM
CCN(C(=O)Cn1c(C(=O)N[C@H]2CC[C@H](C(=O)NCCCCCCCC(=O)O)CC2)cc2sccc21)c1cccc(C)c1 [JRW-0188, 8-(trans-4-(4-(2-(ethyl(m-tolyl)amino)-2-oxoethyl)-4H-thieno[3,2-b]pyrrole-5-carboxamido)cyclohexane-1-carboxamido)octanoic acid]	0.022 µM
CCN(C(=O)Cn1c(C(=O)N[C@H]2CC[C@H](C(=O)NC3CCN(C(C)=O)CC3)CC2)cc2sccc21)c1cccc(C)c1 [JRW-0195, N-(trans-4-((1-acetylpiperidin-4-yl)carbamoyl)cyclohexyl)-4-(2-(ethyl(m-tolyl)amino)-2-oxoethyl)-4H-thieno[3,2-b]pyrrole-5-carboxamide]	0.48 µM
CCN(C(=O)Cn1c(C(=O)NCCCCCCCC(=O)O)cc2sccc21)c1cccc(C)c1 [JRW-0198, 8-(4-(2-(ethyl(m-tolyl)amino)-2-oxoethyl)-4H-thieno[3,2-b]pyrrole-5-carboxamido)octanoic acid]	1 µM
CCN(C(=O)Cn1c(C(=O)NC2CCN(C(=O)CCCCC(=O)O)CC2)cc2sccc21)c1cccc(C)c1 [JRW-0208, 6-(4-(4-(2-(ethyl(m-tolyl)amino)-2-oxoethyl)-4H-thieno[3,2-b]pyrrole-5-carboxamido)piperidin-1-yl)-6-oxohexanoic acid]	0.82 µM
CCN(C(=O)Cn1c(C(=O)N[C@H]2CC[C@H](C(=O)NCCCCCCN)CC2)cc2sccc21)c1cccc(C)c1 [JRW-0241, N-(trans-4-((6-aminohexyl)carbamoyl)cyclohexyl)-4-(2-(ethyl(m-tolyl)amino)-2-oxoethyl)-4H-thieno[3,2-b]pyrrole-5-carboxamide hydrochloride]	0.063 µM
CCN(C(=O)Cn1c(C(=O)N[C@H]2CC[C@H](C(=O)NCCCCCCO)CC2)cc2sccc21)c1cccc(C)c1 [JRW-0242, 4-(2-(ethyl(m-tolyl)amino)-2-oxoethyl)-N-(trans-4-((6-hydroxyhexyl)carbamoyl)cyclohexyl)-4H-thieno[3,2-b]pyrrole-5-carboxamide]	0.035 µM
CCN(C(=O)Cn1c(C(=O)N[C@H]2CC[C@H](C(=O)N[C@H]3CC[C@H](C(=O)OC)CC3)CC2)cc2sccc21)c1cccc(C)c1 [JRW-0243, methyl-trans-4-(trans-4-(4-(2-(ethyl(m-tolyl)amino)-2-oxoethyl)-4H-thieno[3,2-b]pyrrole-5-carboxamido)cyclohexane-1-carboxamido)cyclohexane-1-carboxylate]	0.21 µM
CCN(C(=O)Cn1c(C(=O)N[C@H]2CC[C@@H](C(=O)NCCCCCC(=O)O)CC2)cc2sccc21)c1cccc(C)c1 [JRW-0264, 6-(cis-4-(4-(2-(ethyl(m-tolyl)amino)-2-oxoethyl)-4H-thieno[3,2-b]pyrrole-5-carboxamido)cyclohexane-1-carboxamido)hexanoic acid]	0.24 µM
CCN(C(=O)Cn1c(C(=O)NC[C@H]2CC[C@H](C(=O)NCCCCCC(=O)O)CC2)cc2sccc21)c1cccc(C)c1 [JRW-0268, 6-(trans-4-((4-(2-(ethyl(m-tolyl)amino)-2-oxoethyl)-4H-thieno[3,2-b]pyrrole-5-carboxamido)methyl)cyclohexane-1-carboxamido)hexanoic acid]	4.3 µM
CCN(C(=O)Cn1c(C(=O)N[C@H]2CC[C@H](C(=O)OC)CC2)cc2sccc21)c1ccccc1 [JRW-0318, Methyl trans-4-(4-(2-(ethyl(phenyl)amino)-2-oxoethyl)-4H-thieno[3,2-b]pyrrole-5-carboxamido)cyclohexane-1-carboxylate]	0.11 µM
CCN(C(=O)Cn1c(C(=O)N[C@H]2CC[C@H](C(=O)OC)CC2)cc2sccc21)c1cccc(C#N)c1 [JRW-0321, Methyl trans-4-(4-(2-((3-cyanophenyl)(ethyl)amino)-2-oxoethyl)-4H-thieno[3,2-b]pyrrole-5-carboxamido)cyclohexane-1-carboxylate]	0.16 µM
CCN(C(=O)Cn1c(C(=O)N[C@H]2CC[C@H](C(=O)OC)CC2)cc2sccc21)c1cccc(C(N)=O)c1 [JRW-0322, Methyl trans-4-(4-(2-((3-carbamoylphenyl)(ethyl)amino)-2-oxoethyl)-4H-thieno[3,2-b]pyrrole-5-carboxamido)cyclohexane-1-carboxylate]	0.2 µM
CCc1cccc(N(CC)C(=O)Cn2c(C(=O)N[C@H]3CC[C@H](C(=O)OC)CC3)cc3sccc32)c1 [JRW-0326, Methyl trans-4-(4-(2-(ethyl(3-ethylphenyl)amino)-2-oxoethyl)-4H-thieno[3,2-b]pyrrole-5-carboxamido)cyclohexane-1-carboxylate]	0.0039 µM
CCN(C(=O)Cn1c(C(=O)N[C@H]2CC[C@H](C(=O)OC)CC2)cc2sccc21)c1cccc(OC)c1 [JRW-0327, Methyl trans-4-(4-(2-(ethyl(3-methoxyphenyl)amino)-2-oxoethyl)-4H-thieno[3,2-b]pyrrole-5-carboxamido)cyclohexane-1-carboxylate]	0.11 µM
